The values that follow come from patent US5495046A, “Alkoxyphenylalkylamine derivatives” (Taisho Pharmaceutical Co., Ltd., priority 1991, dated 1996).

The subject of assay [1] is (+) SKF 10047-induced abnormal behaviors. As to the kind of experiment: Antagonism against (+) SKF 10047-induced abnormal behaviors. It counts as in vivo, ICR male mice. The note with it: Mus musculus; oral, 35 minutes before (+) SKF10047 30 mg/kg i.p.; stereotypy scores for 40 minutes at intervals of 5 minutes; read-out: ED25. The procedure:
Examination on Antagonism Against (+) SKF 10047-induced Abnormal Behaviors
Preparations were formulated by dissolving 10 mg of each test drug in 1 ml of dimethylsulfoxide, diluting with physiological saline to a concentration of […], and further diluting the obtained solution to 0.01 and 0.001 mg/kg (administration dose: 0.1 ml per 10 g body weight of mouse).
The invention compound A, the comparative drug AA and Rimcazole were each orally administered in doses of 0.03, 0.1, 0.3, 1.0, 3.0 and 10.0 mg/kg. Preparations were formulated by suspending in a 5% solution of acacia.
(+) SKF10047 [(+)-N-allylnormetazocine hydrochloride; manufactured by Sigma] was intraperitoneally administered in a dose of 30 mg/kg. The preparation was formulated by dissolving in physiological saline.
As test animals, ICR male mice (Nippon Charles River) aged 4 to 5 weeks were used. Each group had 10 animals.
Each animal was introduced into a transparent acrylic resin cage (24 cm in length×17.5 cm in width×12 cm in height) and allowed to fully adapt to the environment. 35 minutes after the administration of a preparation of a test drug, (+) SKF10047 was administered. […]] were evaluated for 40 minutes at intervals of 5 minutes and the ED25 (mg/kg) was determined.

The test system of assay [2] is sigma receptor. The note with it: cited from earlier work.
For assay [3], the target named is D2 receptor. Particulars: value obtained from spiperone binding; European Journal of Pharmacology, 155, p. 345 (1988); cited from earlier work.

Take `C[C@@H]1CN(CCCn2c3ccccc3c3ccccc32)C[C@H](C)N1` [Rimcazole]: the ED25 in assay [1] was 37 mg/kg. The “affinity and specificity for sigma receptor (in words)” value in assay [2] (background art statement) is on record as “restricted”. Further, the IC50 was 1.64 µM in assay [2] (data of European Journal of Pharmacology, 155, p. 345 (1988)) and 86 µM in assay [3].
